The target of one assay is T1, Gal-1 (Homo sapiens, UniProt P09382).
T1 construct: gene LGALS1
Briefly: biochemical.

The next assay has as its target T2, Gal-3^CRD (Homo sapiens, UniProt P17931).
T2 construct: gene LGALS3
Briefly: biochemical.

T2 sequence (P17931 112-250): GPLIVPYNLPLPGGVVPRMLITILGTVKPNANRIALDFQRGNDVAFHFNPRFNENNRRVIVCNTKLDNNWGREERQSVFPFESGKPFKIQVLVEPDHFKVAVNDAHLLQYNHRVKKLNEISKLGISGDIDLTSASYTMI
T1 sequence (P09382 whole entry): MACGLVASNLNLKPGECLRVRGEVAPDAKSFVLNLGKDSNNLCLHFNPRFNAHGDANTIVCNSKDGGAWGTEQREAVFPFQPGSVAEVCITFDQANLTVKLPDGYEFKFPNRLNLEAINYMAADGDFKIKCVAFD

In general, Kd refers to the constant that tells how readily two partners part at equilibrium. A higher Kd goes with weaker binding. Regarding `OC[C@H]1O[C@@H]([Se][C@@H]2O[C@H](CO)[C@H](O)[C@H](O)[C@H]2O)[C@H](O)[C@@H](O)[C@H]1O` [SeDG], the Kd at Gal-1 stood at 23.7 ± 4.2 µM; at Gal-3^CRD, 20.2 ± 2.2 µM.

The values above are taken from publication PMC9368490, “Exploring the Molecular Interactions of Symmetrical and Unsymmetrical Selenoglycosides with Human Galectin-1 and Galectin-3” (International Journal of Molecular Sciences, 2022).
